The results in this text go back to publication PMC7253457, “Nitrite modulates aminoglycoside tolerance by inhibiting cytochrome heme-copper oxidase in bacteria” (Communications Biology, 2020).

The IC50 is the concentration that inhibits the measured activity by half.

In experiment [1] the target is T1, E. coli bo3 (cytochrome bo3 oxidase) (Escherichia coli, UniProt P0ABI8).
T1 construct: gene cyoB
Put plainly: biochemical. From the text: oxygen consumption of membranes, O2 electrode on E. coli bo3 (cytochrome bo3 oxidase)

Experiment [2] concerns the target T2, S. aureus aa3 (cytochrome aa3 oxidase) (Staphylococcus aureus, UniProt Q7A699).
T2 construct: gene qoxB
Description: biochemical. From the text:
oxygen consumption of membranes, O2 electrode on S. aureus aa3 (cytochrome aa3 oxidase)

Experiment [3] has as its target T3, S. oneidensis cbb3 (heme-copper oxidase cbb3) (Shewanella oneidensis, UniProt Q8EEL5).
T3 construct: gene ccoN
Particulars: read-out: IC50(NO2^-); 5 mM NADH as electron donor; ~70 μM O2; membranes of delta-cyd strain. An excerpt:
oxygen consumption of membranes, O2 electrode on S. oneidensis cbb3 (heme-copper oxidase cbb3)

Experiment [4] addresses T4, bd (bd-type quinol oxidase) (Shewanella oneidensis, UniProt Q8EC58).
T4 construct: gene cydA
Particulars: read-out: IC50(NO2^-); 5 mM NADH as electron donor; ~70 μM O2; membranes of delta-cco strain. From the text: oxygen consumption of membranes, O2 electrode on bd (bd-type quinol oxidase)

T4 sequence (Q8EC58 1-518): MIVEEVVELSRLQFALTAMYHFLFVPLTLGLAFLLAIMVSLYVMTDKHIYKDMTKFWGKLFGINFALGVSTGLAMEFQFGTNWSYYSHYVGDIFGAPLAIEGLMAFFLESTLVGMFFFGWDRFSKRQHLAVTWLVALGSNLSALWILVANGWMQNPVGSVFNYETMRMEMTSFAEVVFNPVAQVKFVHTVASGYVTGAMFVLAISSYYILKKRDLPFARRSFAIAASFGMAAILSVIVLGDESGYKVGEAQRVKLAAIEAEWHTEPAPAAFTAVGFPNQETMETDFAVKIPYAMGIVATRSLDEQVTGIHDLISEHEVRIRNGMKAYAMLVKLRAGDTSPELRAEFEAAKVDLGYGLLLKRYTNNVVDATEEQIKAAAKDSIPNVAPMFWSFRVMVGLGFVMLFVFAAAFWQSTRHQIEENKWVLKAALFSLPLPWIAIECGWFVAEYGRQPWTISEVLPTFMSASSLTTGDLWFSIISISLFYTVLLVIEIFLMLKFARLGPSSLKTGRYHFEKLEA
T4 sequence (Q8EC59 1-379 partner): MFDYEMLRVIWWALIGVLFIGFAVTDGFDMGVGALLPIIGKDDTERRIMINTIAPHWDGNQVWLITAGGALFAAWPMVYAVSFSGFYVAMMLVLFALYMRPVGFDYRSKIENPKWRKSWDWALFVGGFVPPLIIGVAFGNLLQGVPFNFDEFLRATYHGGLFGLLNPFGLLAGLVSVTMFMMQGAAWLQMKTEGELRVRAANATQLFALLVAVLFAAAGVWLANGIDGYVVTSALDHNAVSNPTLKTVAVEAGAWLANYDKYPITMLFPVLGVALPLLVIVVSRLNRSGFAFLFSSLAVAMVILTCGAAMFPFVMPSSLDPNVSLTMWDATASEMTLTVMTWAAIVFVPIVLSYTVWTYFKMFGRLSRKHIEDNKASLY
T3 sequence (Q8EEL5 1-478): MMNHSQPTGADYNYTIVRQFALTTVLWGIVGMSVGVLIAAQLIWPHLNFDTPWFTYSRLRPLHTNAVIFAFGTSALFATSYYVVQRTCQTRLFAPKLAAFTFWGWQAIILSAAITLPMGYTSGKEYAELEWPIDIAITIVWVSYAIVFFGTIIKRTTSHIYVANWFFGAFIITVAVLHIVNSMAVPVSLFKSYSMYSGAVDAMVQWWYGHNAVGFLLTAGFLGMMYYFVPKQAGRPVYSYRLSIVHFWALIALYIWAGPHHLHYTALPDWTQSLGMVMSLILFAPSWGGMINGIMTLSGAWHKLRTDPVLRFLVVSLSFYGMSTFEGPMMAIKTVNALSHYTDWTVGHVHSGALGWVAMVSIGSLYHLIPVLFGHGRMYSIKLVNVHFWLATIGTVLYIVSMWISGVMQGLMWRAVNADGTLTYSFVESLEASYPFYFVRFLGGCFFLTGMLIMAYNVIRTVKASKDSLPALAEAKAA
T3 sequence (Q8EEL6 1-208 partner): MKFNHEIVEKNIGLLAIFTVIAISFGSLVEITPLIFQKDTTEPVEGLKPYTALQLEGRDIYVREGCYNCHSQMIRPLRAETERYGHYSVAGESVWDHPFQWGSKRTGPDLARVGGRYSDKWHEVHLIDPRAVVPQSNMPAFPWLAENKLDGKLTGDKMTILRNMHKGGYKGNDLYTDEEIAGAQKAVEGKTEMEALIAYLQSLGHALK
T3 sequence (Q8EEL8 1-322 partner): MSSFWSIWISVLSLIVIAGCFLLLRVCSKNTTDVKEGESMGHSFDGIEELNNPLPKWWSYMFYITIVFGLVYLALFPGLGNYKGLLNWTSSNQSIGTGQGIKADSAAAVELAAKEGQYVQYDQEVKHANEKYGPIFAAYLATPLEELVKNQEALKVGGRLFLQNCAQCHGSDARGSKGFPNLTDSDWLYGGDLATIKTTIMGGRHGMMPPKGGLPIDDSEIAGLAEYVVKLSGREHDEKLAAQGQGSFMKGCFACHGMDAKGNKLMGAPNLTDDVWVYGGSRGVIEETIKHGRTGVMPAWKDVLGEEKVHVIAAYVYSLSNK
T3 sequence (Q8EEL7 1-58 partner): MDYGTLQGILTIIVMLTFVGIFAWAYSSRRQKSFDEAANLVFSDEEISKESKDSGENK
T1 sequence (P0ABI8 whole entry): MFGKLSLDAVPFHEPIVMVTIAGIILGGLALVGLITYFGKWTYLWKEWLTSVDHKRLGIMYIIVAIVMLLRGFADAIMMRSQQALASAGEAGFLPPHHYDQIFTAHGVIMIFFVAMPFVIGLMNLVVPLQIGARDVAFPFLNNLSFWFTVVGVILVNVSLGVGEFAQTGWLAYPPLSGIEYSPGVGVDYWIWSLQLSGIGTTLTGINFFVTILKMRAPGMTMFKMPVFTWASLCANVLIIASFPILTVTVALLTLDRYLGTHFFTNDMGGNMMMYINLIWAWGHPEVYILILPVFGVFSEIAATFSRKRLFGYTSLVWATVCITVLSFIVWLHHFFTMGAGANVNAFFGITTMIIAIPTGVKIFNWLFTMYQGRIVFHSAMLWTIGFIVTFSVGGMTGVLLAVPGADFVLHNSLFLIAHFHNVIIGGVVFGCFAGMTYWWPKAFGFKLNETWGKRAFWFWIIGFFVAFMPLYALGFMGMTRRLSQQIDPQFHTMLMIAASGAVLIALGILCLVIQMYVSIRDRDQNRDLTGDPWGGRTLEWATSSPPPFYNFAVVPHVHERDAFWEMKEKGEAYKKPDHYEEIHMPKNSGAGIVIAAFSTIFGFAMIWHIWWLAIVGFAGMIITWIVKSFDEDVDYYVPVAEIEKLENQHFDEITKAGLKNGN
T1 sequence (P0ABJ1 25-315 partner): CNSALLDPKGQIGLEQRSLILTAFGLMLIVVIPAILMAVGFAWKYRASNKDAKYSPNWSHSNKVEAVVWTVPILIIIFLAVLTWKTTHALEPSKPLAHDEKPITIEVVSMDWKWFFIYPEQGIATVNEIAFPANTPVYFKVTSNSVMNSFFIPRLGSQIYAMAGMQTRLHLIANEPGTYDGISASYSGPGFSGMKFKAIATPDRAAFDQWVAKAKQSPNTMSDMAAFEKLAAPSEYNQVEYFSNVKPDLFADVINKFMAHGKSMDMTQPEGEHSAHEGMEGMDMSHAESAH
T1 sequence (P0ABJ3 whole entry partner): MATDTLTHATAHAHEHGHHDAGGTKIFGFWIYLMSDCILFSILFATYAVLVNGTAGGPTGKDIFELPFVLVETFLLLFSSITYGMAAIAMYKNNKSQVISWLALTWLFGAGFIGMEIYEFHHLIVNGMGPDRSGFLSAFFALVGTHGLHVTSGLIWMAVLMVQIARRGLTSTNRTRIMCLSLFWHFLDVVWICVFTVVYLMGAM
T1 sequence (P0ABJ6 whole entry partner): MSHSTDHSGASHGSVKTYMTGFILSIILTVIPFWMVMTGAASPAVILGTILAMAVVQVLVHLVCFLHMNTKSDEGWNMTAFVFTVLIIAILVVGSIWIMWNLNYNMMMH
T2 sequence (Q7A699 whole entry): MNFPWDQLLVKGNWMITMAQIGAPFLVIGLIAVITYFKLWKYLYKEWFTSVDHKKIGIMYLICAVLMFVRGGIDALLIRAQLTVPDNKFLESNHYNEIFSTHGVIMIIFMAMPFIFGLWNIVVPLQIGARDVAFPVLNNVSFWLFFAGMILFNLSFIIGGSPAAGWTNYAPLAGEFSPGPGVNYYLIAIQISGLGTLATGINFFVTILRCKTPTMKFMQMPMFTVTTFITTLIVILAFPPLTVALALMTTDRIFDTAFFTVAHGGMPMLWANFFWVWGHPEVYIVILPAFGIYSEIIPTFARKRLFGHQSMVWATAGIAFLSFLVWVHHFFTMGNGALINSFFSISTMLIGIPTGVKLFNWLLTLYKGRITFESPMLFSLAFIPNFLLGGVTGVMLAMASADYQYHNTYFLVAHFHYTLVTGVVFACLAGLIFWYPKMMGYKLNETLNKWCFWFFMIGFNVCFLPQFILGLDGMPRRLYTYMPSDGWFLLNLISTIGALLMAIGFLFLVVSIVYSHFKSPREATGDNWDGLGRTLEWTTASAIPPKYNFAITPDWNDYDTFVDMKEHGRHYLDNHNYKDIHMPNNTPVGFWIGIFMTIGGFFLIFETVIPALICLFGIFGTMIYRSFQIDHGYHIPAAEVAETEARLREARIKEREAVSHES
T2 sequence (Q7A698 20-366 partner): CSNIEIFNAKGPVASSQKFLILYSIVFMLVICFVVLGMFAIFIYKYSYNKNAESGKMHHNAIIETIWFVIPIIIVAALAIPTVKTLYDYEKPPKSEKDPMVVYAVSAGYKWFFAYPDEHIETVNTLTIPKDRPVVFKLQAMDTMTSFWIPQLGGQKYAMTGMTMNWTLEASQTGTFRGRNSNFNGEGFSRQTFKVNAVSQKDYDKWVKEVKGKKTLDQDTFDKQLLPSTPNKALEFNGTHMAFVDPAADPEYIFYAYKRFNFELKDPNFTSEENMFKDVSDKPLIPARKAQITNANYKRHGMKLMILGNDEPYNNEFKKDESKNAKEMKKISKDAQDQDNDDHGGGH
T2 sequence (Q7A6A0 whole entry partner): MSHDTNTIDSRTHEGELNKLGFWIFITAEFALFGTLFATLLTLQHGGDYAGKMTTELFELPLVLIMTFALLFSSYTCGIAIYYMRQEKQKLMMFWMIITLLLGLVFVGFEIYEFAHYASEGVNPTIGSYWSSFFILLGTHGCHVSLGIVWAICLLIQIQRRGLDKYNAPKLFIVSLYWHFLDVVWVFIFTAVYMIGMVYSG
T2 sequence (Q7A6A1 whole entry partner): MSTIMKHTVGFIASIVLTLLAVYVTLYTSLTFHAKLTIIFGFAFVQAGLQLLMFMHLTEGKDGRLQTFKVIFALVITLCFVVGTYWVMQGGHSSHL

On to `O=NO` [nitrite], for which the IC50 is 120 ± 13 µM in experiment [1], 137 ± 15 µM in experiment [2], 57 ± 6 µM in experiment [3] and 207 ± 18 µM in experiment [4].
